The values that follow come from ChEMBL document CHEMBL3991601, “The target landscape of clinical kinase drugs” (Science, 2017).

The target in test [1] is T1, Cyclin-dependent kinase-like 5 (Homo sapiens, UniProt O76039).
T1 sequence (O76039 whole entry): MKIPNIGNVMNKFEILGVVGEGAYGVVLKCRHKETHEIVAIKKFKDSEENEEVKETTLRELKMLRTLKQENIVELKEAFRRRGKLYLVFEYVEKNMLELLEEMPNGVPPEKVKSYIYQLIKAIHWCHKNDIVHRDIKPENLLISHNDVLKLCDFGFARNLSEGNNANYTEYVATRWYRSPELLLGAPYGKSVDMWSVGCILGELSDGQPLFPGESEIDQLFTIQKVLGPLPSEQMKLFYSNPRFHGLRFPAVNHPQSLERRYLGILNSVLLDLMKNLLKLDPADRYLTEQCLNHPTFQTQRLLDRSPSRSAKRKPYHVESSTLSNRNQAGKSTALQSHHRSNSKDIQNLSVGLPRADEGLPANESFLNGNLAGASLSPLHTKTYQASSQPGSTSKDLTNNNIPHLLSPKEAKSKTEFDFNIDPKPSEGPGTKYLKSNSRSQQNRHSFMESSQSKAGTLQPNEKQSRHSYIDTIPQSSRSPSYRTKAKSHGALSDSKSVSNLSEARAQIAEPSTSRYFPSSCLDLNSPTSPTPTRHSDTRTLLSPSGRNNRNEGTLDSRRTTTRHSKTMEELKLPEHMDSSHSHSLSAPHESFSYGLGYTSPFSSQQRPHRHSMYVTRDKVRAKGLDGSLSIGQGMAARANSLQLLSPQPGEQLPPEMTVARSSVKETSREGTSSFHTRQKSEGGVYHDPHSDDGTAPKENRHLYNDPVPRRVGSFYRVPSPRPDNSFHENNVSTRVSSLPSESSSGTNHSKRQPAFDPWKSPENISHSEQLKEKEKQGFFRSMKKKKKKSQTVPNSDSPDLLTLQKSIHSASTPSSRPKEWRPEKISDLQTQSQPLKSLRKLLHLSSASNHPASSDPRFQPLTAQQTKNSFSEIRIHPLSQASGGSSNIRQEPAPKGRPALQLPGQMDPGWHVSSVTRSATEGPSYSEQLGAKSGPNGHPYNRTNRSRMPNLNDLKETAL

Test [2] deals with T2, Isoleucine--tRNA ligase, mitochondrial (Homo sapiens, UniProt Q9NSE4).
T2 sequence (Q9NSE4 whole entry): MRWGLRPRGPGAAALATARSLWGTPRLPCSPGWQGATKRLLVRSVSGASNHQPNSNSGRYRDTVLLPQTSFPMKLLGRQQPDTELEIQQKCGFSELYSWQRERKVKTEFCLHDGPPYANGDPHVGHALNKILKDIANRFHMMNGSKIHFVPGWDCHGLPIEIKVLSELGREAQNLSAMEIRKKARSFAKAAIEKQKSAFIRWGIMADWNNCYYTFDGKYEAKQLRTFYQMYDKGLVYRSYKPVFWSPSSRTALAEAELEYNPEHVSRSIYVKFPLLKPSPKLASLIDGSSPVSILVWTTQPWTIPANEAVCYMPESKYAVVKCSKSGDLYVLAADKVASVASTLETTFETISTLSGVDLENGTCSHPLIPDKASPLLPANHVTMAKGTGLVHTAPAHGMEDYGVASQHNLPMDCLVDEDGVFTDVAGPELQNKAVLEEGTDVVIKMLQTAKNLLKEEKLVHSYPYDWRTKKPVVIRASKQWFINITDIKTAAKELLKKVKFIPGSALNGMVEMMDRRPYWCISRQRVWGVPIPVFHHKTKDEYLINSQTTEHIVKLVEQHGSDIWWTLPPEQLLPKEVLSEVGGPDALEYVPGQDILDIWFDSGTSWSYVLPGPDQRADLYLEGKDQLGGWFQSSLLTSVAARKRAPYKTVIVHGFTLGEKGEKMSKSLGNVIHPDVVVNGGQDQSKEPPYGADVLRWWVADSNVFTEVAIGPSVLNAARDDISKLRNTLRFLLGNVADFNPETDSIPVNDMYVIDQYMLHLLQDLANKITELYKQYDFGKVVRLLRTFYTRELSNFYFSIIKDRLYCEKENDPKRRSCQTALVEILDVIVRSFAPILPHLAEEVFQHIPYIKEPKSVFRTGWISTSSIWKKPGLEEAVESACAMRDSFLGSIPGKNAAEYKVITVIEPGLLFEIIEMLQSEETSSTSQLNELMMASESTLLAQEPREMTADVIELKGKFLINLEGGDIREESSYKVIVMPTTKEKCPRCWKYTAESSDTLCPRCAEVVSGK

In test [3] the target is Mitogen-activated protein kinase 14 (Homo sapiens, UniProt Q16539).
In test [4] the target is Dual specificity protein kinase CLK4 (Homo sapiens, UniProt Q9HAZ1).
Test [5] addresses Dual specificity protein kinase CLK2 (Homo sapiens, UniProt P49760).
The target of test [6] is Serine/threonine-protein kinase Nek7 (Homo sapiens, UniProt Q8TDX7).
The target of test [7] is DNA topoisomerase 2-alpha (Homo sapiens, UniProt P11388).
Test [8] concerns the target MAP kinase-activated protein kinase 3 (Homo sapiens, UniProt Q16644).
Test [9] concerns the target Glycogen synthase kinase-3 beta (Homo sapiens, UniProt P49841).
Test [10] deals with Serine/threonine-protein kinase ATR (Homo sapiens, UniProt Q13535).
Test [11] has as its target Dual specificity testis-specific protein kinase 1 (Homo sapiens, UniProt Q15569).
For test [12], the target named is Phosphatidylethanolamine-binding protein 1 (Homo sapiens, UniProt P30086).
The target in test [13] is Membrane-associated progesterone receptor component 1 (Homo sapiens, UniProt O00264).
Test [14] concerns the target Proto-oncogene tyrosine-protein kinase receptor Ret (Homo sapiens, UniProt P07949).
The target of test [15] is T3, UMP-CMP kinase (Homo sapiens, UniProt P30085).
T3 sequence (P30085 whole entry): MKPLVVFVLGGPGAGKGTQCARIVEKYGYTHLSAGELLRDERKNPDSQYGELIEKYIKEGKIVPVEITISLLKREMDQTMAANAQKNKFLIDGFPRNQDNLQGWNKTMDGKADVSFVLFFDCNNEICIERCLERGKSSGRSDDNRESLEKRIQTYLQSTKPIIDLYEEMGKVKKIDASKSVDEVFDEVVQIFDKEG

The target in test [16] is Epidermal growth factor receptor (Homo sapiens, UniProt P00533).
The target of test [17] is Cell division cycle 7-related protein kinase (Homo sapiens, UniProt O00311).

What is called Kd is a measure of binding affinity in units of concentration.

The source made the active and inactive calls.
Also: in the data inactive means no Kd found up to 30 µM.

Sequence of Glycogen synthase kinase-3 beta (P49841 whole entry): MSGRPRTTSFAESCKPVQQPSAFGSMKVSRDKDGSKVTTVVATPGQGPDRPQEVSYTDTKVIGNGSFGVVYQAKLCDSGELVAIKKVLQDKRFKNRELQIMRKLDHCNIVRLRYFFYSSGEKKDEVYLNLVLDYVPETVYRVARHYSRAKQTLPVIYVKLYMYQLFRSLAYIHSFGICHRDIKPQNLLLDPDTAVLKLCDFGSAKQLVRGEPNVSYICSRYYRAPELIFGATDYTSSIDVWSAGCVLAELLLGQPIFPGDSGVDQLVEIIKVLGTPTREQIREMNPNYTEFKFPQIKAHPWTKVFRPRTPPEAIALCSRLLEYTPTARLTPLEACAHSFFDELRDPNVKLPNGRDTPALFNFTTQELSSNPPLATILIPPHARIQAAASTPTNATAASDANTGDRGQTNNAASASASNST
Sequence of Phosphatidylethanolamine-binding protein 1 (P30086 whole entry): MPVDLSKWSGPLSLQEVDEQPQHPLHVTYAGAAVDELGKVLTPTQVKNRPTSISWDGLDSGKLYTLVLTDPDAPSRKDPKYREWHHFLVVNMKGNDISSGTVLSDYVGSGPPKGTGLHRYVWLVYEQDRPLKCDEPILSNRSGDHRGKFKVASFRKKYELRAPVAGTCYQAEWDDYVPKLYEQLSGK
Sequence of Dual specificity testis-specific protein kinase 1 (Q15569 whole entry): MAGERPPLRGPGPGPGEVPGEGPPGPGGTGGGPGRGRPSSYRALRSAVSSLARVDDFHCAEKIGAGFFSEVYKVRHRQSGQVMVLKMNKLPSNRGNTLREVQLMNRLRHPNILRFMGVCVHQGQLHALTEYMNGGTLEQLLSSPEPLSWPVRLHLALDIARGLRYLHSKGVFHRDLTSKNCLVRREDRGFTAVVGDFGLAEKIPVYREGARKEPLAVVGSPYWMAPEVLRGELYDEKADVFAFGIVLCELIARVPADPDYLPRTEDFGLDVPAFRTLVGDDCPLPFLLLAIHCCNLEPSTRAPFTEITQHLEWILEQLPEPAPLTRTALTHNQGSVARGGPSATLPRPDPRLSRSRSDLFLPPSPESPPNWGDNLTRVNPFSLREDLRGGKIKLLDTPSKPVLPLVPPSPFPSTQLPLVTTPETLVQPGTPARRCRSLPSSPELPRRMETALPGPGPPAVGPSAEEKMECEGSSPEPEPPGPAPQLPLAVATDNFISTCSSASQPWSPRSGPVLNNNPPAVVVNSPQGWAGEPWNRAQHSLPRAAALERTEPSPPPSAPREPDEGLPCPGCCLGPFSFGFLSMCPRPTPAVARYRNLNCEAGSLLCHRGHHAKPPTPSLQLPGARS
Sequence of Dual specificity protein kinase CLK2 (P49760 whole entry): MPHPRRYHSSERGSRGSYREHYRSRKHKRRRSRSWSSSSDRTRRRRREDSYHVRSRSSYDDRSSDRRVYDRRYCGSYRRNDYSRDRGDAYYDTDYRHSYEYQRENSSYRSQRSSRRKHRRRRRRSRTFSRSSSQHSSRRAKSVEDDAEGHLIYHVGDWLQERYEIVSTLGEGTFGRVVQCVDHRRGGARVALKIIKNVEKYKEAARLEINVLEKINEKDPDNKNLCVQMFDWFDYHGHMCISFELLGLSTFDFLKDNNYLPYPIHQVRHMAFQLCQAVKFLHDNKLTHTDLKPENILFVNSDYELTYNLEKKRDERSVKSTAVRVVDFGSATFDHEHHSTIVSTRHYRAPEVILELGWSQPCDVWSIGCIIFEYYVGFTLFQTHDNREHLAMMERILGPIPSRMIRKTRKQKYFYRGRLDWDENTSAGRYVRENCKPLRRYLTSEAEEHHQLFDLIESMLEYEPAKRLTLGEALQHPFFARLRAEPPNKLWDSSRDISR
Sequence of Cell division cycle 7-related protein kinase (O00311 whole entry): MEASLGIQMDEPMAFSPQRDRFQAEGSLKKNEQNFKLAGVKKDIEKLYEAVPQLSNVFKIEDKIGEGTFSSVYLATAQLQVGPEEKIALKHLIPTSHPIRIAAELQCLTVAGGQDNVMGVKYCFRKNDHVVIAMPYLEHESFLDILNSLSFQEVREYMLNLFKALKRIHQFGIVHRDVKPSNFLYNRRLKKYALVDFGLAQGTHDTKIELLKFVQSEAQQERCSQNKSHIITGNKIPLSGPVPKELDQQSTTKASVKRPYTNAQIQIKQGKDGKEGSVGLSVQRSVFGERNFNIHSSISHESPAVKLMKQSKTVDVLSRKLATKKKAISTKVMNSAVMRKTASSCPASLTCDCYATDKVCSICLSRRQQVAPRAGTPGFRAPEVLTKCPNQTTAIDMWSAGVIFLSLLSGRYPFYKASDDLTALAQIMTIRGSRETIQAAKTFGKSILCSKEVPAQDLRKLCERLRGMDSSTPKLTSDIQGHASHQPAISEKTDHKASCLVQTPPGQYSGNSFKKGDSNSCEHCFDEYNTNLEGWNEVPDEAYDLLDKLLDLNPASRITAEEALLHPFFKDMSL
Sequence of Serine/threonine-protein kinase Nek7 (Q8TDX7 whole entry): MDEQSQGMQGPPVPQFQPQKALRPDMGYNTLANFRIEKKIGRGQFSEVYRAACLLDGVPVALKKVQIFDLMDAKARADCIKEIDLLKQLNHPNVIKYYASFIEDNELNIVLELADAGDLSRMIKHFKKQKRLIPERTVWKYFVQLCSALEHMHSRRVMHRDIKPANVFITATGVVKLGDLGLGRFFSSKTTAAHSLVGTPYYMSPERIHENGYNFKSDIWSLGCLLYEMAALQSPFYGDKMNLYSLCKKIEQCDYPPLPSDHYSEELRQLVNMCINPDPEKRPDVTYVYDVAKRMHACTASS
Sequence of Epidermal growth factor receptor (P00533 whole entry): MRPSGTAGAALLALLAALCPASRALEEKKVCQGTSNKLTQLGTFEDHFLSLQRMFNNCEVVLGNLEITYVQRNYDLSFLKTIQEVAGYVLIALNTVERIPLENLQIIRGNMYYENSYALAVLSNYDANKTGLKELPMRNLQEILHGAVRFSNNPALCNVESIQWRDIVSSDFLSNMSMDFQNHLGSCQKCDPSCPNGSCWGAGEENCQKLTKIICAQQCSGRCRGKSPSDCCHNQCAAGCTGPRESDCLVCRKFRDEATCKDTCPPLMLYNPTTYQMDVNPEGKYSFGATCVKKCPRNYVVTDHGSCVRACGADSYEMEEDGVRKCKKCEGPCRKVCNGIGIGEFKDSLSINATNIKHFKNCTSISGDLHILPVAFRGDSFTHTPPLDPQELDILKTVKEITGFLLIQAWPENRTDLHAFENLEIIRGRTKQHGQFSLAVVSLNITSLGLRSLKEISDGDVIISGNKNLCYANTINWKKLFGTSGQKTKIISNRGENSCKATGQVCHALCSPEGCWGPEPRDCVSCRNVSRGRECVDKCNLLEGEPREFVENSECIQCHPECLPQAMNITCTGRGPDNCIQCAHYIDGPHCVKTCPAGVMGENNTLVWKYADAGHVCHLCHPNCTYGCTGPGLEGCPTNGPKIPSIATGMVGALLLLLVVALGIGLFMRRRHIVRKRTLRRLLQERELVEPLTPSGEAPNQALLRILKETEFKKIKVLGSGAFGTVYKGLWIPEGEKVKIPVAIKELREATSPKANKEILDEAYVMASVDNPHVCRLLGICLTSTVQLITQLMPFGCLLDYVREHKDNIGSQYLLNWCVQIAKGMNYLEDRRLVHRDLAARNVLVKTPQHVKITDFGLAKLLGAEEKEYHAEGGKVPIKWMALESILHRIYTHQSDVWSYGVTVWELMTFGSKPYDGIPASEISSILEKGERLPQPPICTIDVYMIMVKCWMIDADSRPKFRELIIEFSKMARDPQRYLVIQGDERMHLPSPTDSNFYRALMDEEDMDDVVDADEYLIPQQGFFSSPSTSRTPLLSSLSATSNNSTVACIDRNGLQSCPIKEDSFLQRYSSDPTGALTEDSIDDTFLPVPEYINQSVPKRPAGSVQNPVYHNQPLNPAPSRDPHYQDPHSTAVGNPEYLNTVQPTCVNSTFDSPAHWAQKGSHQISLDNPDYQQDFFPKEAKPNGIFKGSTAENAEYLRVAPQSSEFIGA
Sequence of Proto-oncogene tyrosine-protein kinase receptor Ret (P07949 whole entry): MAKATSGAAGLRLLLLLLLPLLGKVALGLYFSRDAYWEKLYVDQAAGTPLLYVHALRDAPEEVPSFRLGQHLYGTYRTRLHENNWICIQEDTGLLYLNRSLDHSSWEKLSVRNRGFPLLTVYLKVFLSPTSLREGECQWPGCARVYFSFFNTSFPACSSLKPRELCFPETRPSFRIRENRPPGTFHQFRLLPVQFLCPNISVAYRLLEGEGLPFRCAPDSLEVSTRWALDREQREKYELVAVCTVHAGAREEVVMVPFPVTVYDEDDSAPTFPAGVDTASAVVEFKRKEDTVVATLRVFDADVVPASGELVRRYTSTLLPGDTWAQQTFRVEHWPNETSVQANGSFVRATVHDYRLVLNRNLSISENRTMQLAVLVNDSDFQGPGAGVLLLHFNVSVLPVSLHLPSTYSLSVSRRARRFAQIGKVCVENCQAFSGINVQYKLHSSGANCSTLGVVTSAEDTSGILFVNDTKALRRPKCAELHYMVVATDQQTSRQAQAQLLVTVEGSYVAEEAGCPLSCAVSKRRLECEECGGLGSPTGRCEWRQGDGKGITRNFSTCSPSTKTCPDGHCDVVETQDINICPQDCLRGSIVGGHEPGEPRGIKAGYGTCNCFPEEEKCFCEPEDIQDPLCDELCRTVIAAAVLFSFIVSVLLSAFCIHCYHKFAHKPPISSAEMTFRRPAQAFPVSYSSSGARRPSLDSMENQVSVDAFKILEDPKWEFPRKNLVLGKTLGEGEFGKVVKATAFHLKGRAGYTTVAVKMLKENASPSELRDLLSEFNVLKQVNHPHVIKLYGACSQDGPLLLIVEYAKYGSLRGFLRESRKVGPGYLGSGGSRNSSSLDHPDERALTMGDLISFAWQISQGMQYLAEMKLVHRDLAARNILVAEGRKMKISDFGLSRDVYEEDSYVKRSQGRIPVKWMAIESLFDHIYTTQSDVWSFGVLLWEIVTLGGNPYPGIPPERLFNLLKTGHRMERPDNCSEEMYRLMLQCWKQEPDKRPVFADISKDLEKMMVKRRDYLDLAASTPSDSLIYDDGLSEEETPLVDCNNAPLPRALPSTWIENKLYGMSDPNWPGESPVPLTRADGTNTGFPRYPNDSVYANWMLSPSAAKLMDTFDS

In the case of `O[C@H]1CC[C@H](Nc2ncc3nc(Nc4c(F)cc(F)cc4F)n([C@H]4CCOC4)c3n2)CC1` [TANZISERTIB], the Kd is > 30 µM (inactive) in test [1]; > 30 µM (inactive) in test [2]; 0.729 µM (active) in test [3]; > 30 µM (inactive) in test [4]; > 30 µM (inactive) in test [5]; > 30 µM (inactive) in test [6]. The Kd in test [7], in test [8], in test [9], in [10], in [11] and in [12] was > 30 µM (inactive) each time.
For the compound `CNC(=O)c1cccc(-c2ccc3c(N4CCOC[C@@H]4C)nc(N4CCOC[C@@H]4C)nc3n2)c1` [VISTUSERTIB], the Kd in test [1], in [2], in test [3], in [4], in test [5] and in [13] was > 30 µM (inactive) in each case. Moreover, the Kd in test [8], in [9], in [14], in test [10], in [15] and in [11] was > 30 µM (inactive) in each case. Besides, the Kd in test [12], in test [16] and in test [17] was > 30 µM (inactive) each time.
`Cc1cc(-c2cc(OC(=O)c3ccccc3)ccc2Cl)cc2nnc(Nc3ccc(OCCN4CCCC4)cc3)nc12` [TG100-801]: the Kd in test [1], in test [3], in test [5], in [6], in test [8] and in [9] was > 30 µM (inactive) each time. Moreover, the equilibrium dissociation constant (Kd) in test [14] is 1.03 µM (active); in test [10], > 30 µM (inactive); in test [11], > 30 µM (inactive); in [16], > 30 µM (inactive).
In the case of `O=C(O)c1ccc2c(c1)nc(Nc1cccc(Cl)c1)c1ccncc12` [SILMITASERTIB], the Kd in test [1] was > 30 µM (inactive); in test [3] it was > 30 µM (inactive); in test [4] it was > 30 µM (inactive); in [13] it was > 30 µM (inactive); in test [6] it was > 30 µM (inactive); in [8] it was 0.026 µM (active). For the same compound, the Kd in test [14], in test [10], in test [11] and in test [16] was > 30 µM (inactive) each time.
As to `c1cc(OCCN2CCCCC2)cc(-c2n[nH]c3ccc(-c4nc[nH]n4)cc23)c1` [CC-401], the Kd in [1], in test [3], in [4], in test [5], in test [13] and in test [6] was > 30 µM (inactive) each time. Further, the Kd in test [7], in test [8], in [14], in [11], in test [12] and in test [16] was > 30 µM (inactive) each time.
With `Cn1c(=O)c(F)c(Nc2ccc(I)cc2F)c2c(=O)n(C[C@@H](O)CO)cnc21` [TAK-733], the Kd in test [3], in test [5], in test [13], in test [6], in test [7] and in test [8] was > 30 µM (inactive) in each case. The Kd in [9], in test [14], in test [11], in test [12] and in test [16] was > 30 µM (inactive) in each case.
Consider `C[C@@H]1COC(Nc2ccc3ncnc(Nc4ccc(OCc5nccs5)c(Cl)c4)c3c2)=N1` [VARLITINIB], for which the Kd in [1], in test [3], in test [4], in test [5], in test [13] and in test [6] was > 30 µM (inactive) each time. Besides, the Kd in [7], in [8], in [9], in test [14], in test [10] and in [11] was > 30 µM (inactive) in each case. The dissociation constant (Kd) in test [16] is 0.005 µM (active); in test [17] it was > 30 µM (inactive).
As to `COc1cc2ncnc(Nc3ccc(F)c(Cl)c3)c2cc1NC(=O)/C=C/CN1CCCCC1` [DACOMITINIB ANHYDROUS], the Kd in [1], in test [3], in [5], in [6], in [8] and in [9] was > 30 µM (inactive) in each case. Further, the Kd in test [14], in [15], in test [12] and in test [17] was > 30 µM (inactive) in each case.
`O=C(NOC[C@H](O)CO)c1ccc(F)c(F)c1Nc1ccc(I)cc1F` [MIRDAMETINIB]: the Kd in test [4], in test [5], in [13], in test [6], in test [7] and in test [8] was > 30 µM (inactive) each time. In addition, the Kd in [9], in test [14], in test [11] and in test [16] was > 30 µM (inactive) each time.
